# According to patent US20190226949A1, “IRIDIUM COMPLEXES FOR CELLULAR IMAGING” (UNIVERSITY OF SOUTH AUSTRALIA, priority 2016, published 2019):
# Values joined by “and” are separate entries in the source; they are usually repeats but may differ in a detail not shown here. Equal entries are not always repeated.
# Assays:
# [1] = Photophysical measurements (absorption, emission, lifetime, quantum yield) in diluted solutions; type: physicochemical; details: for Emission λem / τaer, excited state lifetime (relative weight in parentheses) / τdeaer, excited state lifetime (relative weight in parentheses): 298K; for Φaer, quantum yield / Φdeaer, quantum yield: versus Ru(bpy)3^2+ in water (φr = 0.028); for τdeaer, excited state lifetime (relative weight in parentheses) / Φdeaer, quantum yield: deaerated; for knr: calculated as [(1 − φ)/τ] from deaerated solutions; for kr: calculated as [φ/τ] from deaerated solutions; for Φ, quantum yield: versus Ru(bpy)3^2+ in water
# From the text: A summary of the photophysical data for the complexes as diluted solutions (10^−5 M) in dichloromethane, water, PBS, lysosomal fluid solution, and ethyl laurate is reported in Table 1. All the listed aqueous media also contain 0.1% DMSO to favour the solubilisation of the complexes. The various solvents have been chosen to identify potential modulations on the photophysical behaviour of the iridium complexes in diverse cellular environments such as cytoplasm, endosome/lysosomes acidic organelles, or lipid-rich compartments like membranes, endoplasmic reticulum, and lipid droplets. In general, the photophysical characteristics were measured in aerated solutions to take into account the presence of oxygen in live cells. On the other hand, dichloromethane solutions were compared as aerated and degassed to confirm oxygen sensitivity and triplet character of the excited states of the complexes.
# Absorption spectra were recorded at room temperature using a Cary 4000 UV/Vis spectrometer. Uncorrected steady state emission and excitation spectra were recorded on an Edinburgh FLSP980-S2S2-stm spectrometer equipped with: i) a temperature-monitored cuvette holder; ii) 450 W Xenon arc lamp; iii) double excitation and emission monochromators; iv) a Peltier cooled Hamamatsu R928P photomultiplier tube (spectral range 200-870 nm). Emission and excitation spectra were corrected for source intensity (lamp and grating) and emission spectral response (detector and grating) by a calibration curve supplied with the instrument. According to the approach described by Demas and Crosby, luminescence quantum yields (Φem) were measured in optically dilute solutions (O.D.<0.1 at excitation wavelength) obtained from absorption spectra on a wavelength scale [nm] and compared to the reference emitter by the following equation: […]
# where A is the absorbance at the excitation wavelength (λ), I is the intensity of the excitation light at the excitation wavelength (λ), n is the refractive index of the solvent, D is the integrated intensity of the luminescence and Φ is the quantum yield. The subscripts r and x refer to the reference and the sample, respectively. The quantum yield determinations were performed at identical excitation wavelength for the sample and the reference, therefore cancelling the I(λr)/I(λx) term in the equation. The quantum yields of complexes were measured against Rubipy in water (Φr=0.028). Emission lifetimes (z) were determined with the time correlated single photon counting technique (TCSPC) with the same Edinburgh FLSP980-S2S2-stm spectrometer using either a pulsed picosecond LED (EPLED/EPL 377 nm, FHWM<800 ps) or a microsecond flashlamp. The goodness of fit was assessed by minimising the reduced χ^2 function and by visual inspection of the weighted residuals. The solvents used for the preparation of the solutions for the photophysical investigations were of LR grade and the water was deionised. Degassing of the dichlorometane solutions was performed using the freeze-pump-thaw method. Experimental uncertainties are estimated to be ±8% for lifetime determinations, ±20% for quantum yields, ±2 nm and ±5 nm for absorption and emission peaks, respectively.
# [2] = Lipophilicity by shake-flask method (7.4-buffered PBS / n-octanol); type: physicochemical; details: 7.4-buffered PBS solution and n-octanol
# Experimental: The lipophilicity of the iridium complexes was measured by the shake-flask method using 7.4-buffered PBS and n-octanol as solvents (Table 2). The values range between 1.49 and 2.68 are typical for cyclometalated iridium complexes that have not been bioconjugated. […] In general, neutral complexes have log D7.4 values above 2.00 and there is an increased in lipophilicity of extending the tetrazolato ligand with the addition of a phenyl spacer in [Ir(ppy)2(TzPyPhCN)], or by extending the conjugation on passing from pyridine to quinoline or isoquinoline for [Ir(ppy)2(TzQn)] and [Ir(ppy)2(TziQn)]. Methylation in all cases reduces lipophilicity to log D7.4 values […], with the same trend within the family of methylated complexes as previously observed for the neutral ones.
# [3] = test system: H9c2 rat cardiomyoblast cells; test: Staining and co-staining of live H9c2 cells, confocal and two-photon microscopy; type: cell-based; details: live H9c2, 20 μM, 30 minutes
# Experimental: Live H9c2 rat cardiomyoblasts were incubated with the iridium complexes for 30 minutes. Complexes were made to a final concentration of 20 μM in the cell culture medium with DMSO concentration <0.2%. Under these conditions, the luminescence from the iridium complexes within the cells was detected via confocal microscopy under single-photon excitation (403 nm) or two-photon excitation (810-840 nm).
# To determine the localisation of the iridium complexes, co-staining experiments were carried out with the use of ER-Tracker™ Red (endoplasmic reticulum), LysoTracker® Red DND-99 (acidic compartments), MitoTracker® Red (mitochondria), BODIPY® 500/510 C1, C12(fatty acid) or β-BODIPY® FL HPC (phospholipids). […] This difference was also in agreement with the trend of the quantum yield data illustrated before and detection of internalised complex by ICP-MS.
# H9c2 rat cardiomyoblast cell line was a kind gift from Professor Janna Morrison (University of South Australia). The H9c2 cells were maintained in high-glucose (4500 mg/L) DMEM medium (Sigma-Aldrich, USA) containing 10% fetal bovine serum (FBS; In Vitro Technologies, USA) and 2 mM L-glutamine (Sigma-Aldrich, USA) at 37° C. and 5% CO2. The H9c2 cells were cultured in […] flasks, and cells (1×10^6 cells/mL) that had been passaged, from two up to five times were used for experiments. For live cell imaging and MTS assay, the H9c2 cells (1×10^5 cells/mL) were cultured overnight in either ibidi μ-Slide 8 wells in a final volume of 250 μL or 96-well microtiter plate in a final volume of 200 μL in absence of Ir-based molecular probes.
# The H9c2 cells were incubated with 20 μM of Ir-based molecular probes for 30 minutes in FBS-free media (300 μL) at 37° C. and 5% CO2. These cells were washed twice with phosphate buffered saline (PBS) and once with FBS-free media, and then co-stained with either ER-Tracker™ Red (BODIPY® TR Glibenclamide), LysoTracker® Red DND-99, MitoTracker® Red CMXRos (1H,5H,11H,15H-Xantheno[2,3,4-ij:5,6,7-i′j′]diquinolizin-18-ium, 9-[4-(chloromethyl)phenyl]-2,3,6,7,12,13,16,17-octahydro-, chloride), β-BODIPY® FL C5-HPC (2-(4,4-Difluoro-5,7-Dimethyl-4-Bora-3a,4a-Diaza-s-Indacene-3-Pentanoyl)-1-Hexadecanoyl-sn-Glycero-3-Phosphocholine) or BODIPY® 500/510 C1, C12 (4,4-Difluoro-5-Methyl-4-Bora-3a,4a-Diaza-s-Indacene-3-Dodecanoic Acid), which were obtained from Life Technologies Australia Pty Ltd, Australia. Cell biology analysis was carried out with a minimum of two experimental groups. Imaging analysis was performed using a Nikon A1+ confocal microscope equipped with 403 nm, 488 nm, 561 nm and 640 nm solid-state lasers (Nikon, Japan) and OKOLab Microscope Incubator (Okolab USA Inc., USA). The final preparation of the images was conducted with Adobe Photoshop CC (Adobe Systems Inc., USA).
# The H9c2 cells were incubated with 20 μM of Ir-based molecular probes for 30 minutes in FBS-free media (300 μL) at 37° C. and 5% CO2. These cells then were washed with phosphate buffered saline (PBS) and imaged using Zeiss LSM710 META NLO inverted microscope supplemented with a two-photon Mai-Tai®, tunable Ti:Sapphire femtosecond pulse laser (710-920 nm, Spectra-Physics). Fluorescence of Ir-based molecular probes was detected using the following settings: two-photon excitation wavelength 830 nm, beam splitter MBS 690+, emission interval 520-650 nm. The H9c2 cells were exposed to two-photon illumination between 810-840 nm. A continuum of lambda stack images was captured across the emission spectrum 416-728 nm. The images were acquired using a Plan-APOCHROMAT 63X/NA1.4 oil immersion objective. The final preparation of the images was conducted with Adobe Photoshop CC (Adobe Systems Inc., USA).
Structure (SMILES),"Emission λem ([1]; DCM, 10^−5 M)","τaer, excited state lifetime (relative weight in parentheses) ([1]; DCM, aerated)","Φaer, quantum yield ([1]; DCM, aerated)","τdeaer, excited state lifetime (relative weight in parentheses) ([1]; DCM)","Φdeaer, quantum yield ([1]; DCM)",knr ([1]; DCM),kr ([1]; DCM),"Absorption λabs [nm] (10^4ε [M^−1cm^−1]) ([1]; H2O with 0.1% DMSO, 10^−5 M)","Emission λem ([1]; H2O with 0.1% DMSO, aerated)","Φ, quantum yield ([1]; H2O with 0.1% DMSO, aerated)","logD7.4, distribution coefficient [2]",emission detected from stained cells [3],"emission in the various solvents ([1]; dichloromethane, water, PBS, lysosomal fluid, ethyl laurate)","Absorption λabs [nm] (10^4ε [M^−1cm^−1]) ([1]; DCM, 10^−5 M)"
N#Cc1ccc2[n+](c1)[Ir]13([c]4cc(F)cc(F)c4-c4cccc[n+]41)([c]1cc(F)cc(F)c1-c1cccc[n+]13)[n]1nnnc1-2 [[Ir(F2ppy)2(TzPyCN)]],542 nm,140 ns,0.042,697 ns,0.406,0.852 10^6s^−1,5.825 10^5s^−1,256 (4.83) nm (10^4ε [M^−1cm^−1]) and 302 (3.36) nm (10^4ε [M^−1cm^−1]) and 366 (1.16) nm (10^4ε [M^−1cm^−1]),552 nm,0.057,2.01 ± 0.05,–,–,–
C[n+]1nc2[n](n1)[Ir]13([c]4ccccc4-c4cccc[n+]41)([c]1ccccc1-c1cccc[n+]13)[n+]1cc(C#N)ccc1-2 [[Ir(ppy)2(MeTzPyCN)]^+],680 nm,–,0.012,–,0.014,–,–,–,–,–,–,no emission was detected from stained cells,appreciable emission only in dichloromethane solution,–
N#Cc1ccc(-c2ccc3[n+](c2)[Ir]24([c]5ccccc5-c5cccc[n+]52)([c]2ccccc2-c2cccc[n+]24)[n]2nnnc2-3)cc1 [[Ir(ppy)2(TzPyPhCN)]],560 nm,114 ns,0.023,880 ns,0.149,0.967 10^6s^−1,1.693 10^5s^−1,286 (1.87) nm (10^4ε [M^−1cm^−1]) and 350 (0.86) nm (10^4ε [M^−1cm^−1]) and 421 (0.34) nm (10^4ε [M^−1cm^−1]),580 nm,0.055,2.68 ± 0.08,–,–,268 (3.95) nm (10^4ε [M^−1cm^−1]) and 290 (3.64) nm (10^4ε [M^−1cm^−1]) and 345 (0.58) nm (10^4ε [M^−1cm^−1]) and 423 (0.27) nm (10^4ε [M^−1cm^−1])
c1cc[c]2c(c1)-c1cccc[n+]1[Ir]213([c]2ccccc2-c2cccc[n+]21)[n]1nnnc1-c1ccc2ccccc2[n+]13 [[Ir(ppy)2(TzQn)]],580 nm,153 ns,0.021,831 ns,0.065,1.125 10^6s^−1,0.782 10^5s^−1,266 (4.41) nm (10^4ε [M^−1cm^−1]) and 350 (2.35) nm (10^4ε [M^−1cm^−1]) and 425 (0.97) nm (10^4ε [M^−1cm^−1]),600 nm,0.039,2.23 ± 0.04,–,–,263 (8.44) nm (10^4ε [M^−1cm^−1]) and 345 (1.97) nm (10^4ε [M^−1cm^−1]) and 428 (0.42) nm (10^4ε [M^−1cm^−1])
c1cc[c]2c(c1)-c1cccc[n+]1[Ir]213([c]2ccccc2-c2cccc[n+]21)[n]1nnnc1-c1c2ccccc2cc[n+]13 [[Ir(ppy)2(TziQn)]],"535, nm and 575 nm and 620 nm",497 ns,0.036,6713 ns,0.144,0.128 10^6s^−1,0.214 10^5s^−1,268 (3.42) nm (10^4ε [M^−1cm^−1]) and 350 (2.00) nm (10^4ε [M^−1cm^−1]) and 435 (0.80) nm (10^4ε [M^−1cm^−1]),590 nm,0.018,2.57 ± 0.05,–,–,260 (9.77) nm (10^4ε [M^−1cm^−1]) and 340 (3.13) nm (10^4ε [M^−1cm^−1]) and 424 (0.75) nm (10^4ε [M^−1cm^−1])
